Data published in US8680152B2, “Cathepsin inhibitors for the treatment of bone cancer and bone cancer pain” (Virobay, Inc., priority 2011, dated 2014).

How the values were obtained:
[1] = system: cathepsin S-dependent invariant chain processing; test: Cathepsin S-dependent invariant chain processing in Raji B cells; format: cell-based; settings: Homo sapiens, read-out: inhibition of cathepsin S-dependent invariant chain processing IC50
cathepsin S [2] = molecular target: T1, cathepsin S (Mus musculus, UniProt O70370); test: Cathepsin S enzyme across species: mouse; format: biochemical
cathepsin S enzyme [3] = molecular target: cathepsin S enzyme (Rattus norvegicus, UniProt Q02765); test: Cathepsin S enzyme across species: rat; format: biochemical
Sequence of cathepsin S enzyme (Rattus norvegicus, UniProt Q02765) (Q02765 113-330): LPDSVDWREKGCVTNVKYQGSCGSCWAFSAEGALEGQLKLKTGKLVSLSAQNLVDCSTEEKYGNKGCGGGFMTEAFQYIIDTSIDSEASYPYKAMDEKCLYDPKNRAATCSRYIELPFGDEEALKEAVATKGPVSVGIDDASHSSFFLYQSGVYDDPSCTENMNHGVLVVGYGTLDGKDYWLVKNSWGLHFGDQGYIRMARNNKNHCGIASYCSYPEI

cathepsin S enzyme [4] = molecular target: cathepsin S enzyme (Canis lupus familiaris, UniProt Q8HY81); test: Cathepsin S enzyme across species: dog; format: biochemical
Sequence of cathepsin S enzyme (Canis lupus familiaris, UniProt Q8HY81) (Q8HY81 115-331): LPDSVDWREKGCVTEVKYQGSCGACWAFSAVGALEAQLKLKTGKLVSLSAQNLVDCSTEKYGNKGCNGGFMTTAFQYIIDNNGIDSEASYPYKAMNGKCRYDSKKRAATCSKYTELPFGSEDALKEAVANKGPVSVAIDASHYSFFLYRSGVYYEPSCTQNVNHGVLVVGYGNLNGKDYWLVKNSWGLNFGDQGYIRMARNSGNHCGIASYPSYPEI

tumor invasion = test: In vitro bioassay for tumor invasiveness; format: cell-based
angiogenesis = test: In vitro bioassay for angiogenesis; format: cell-based
[5] = system: 66.1 cancer cells in the bone; test: Bone cancer pain study (breast cancer cells implanted in femur); format: in vivo, mice
Method: FIG. 3: Bone cancer and bone cancer pain study with Compound A. FIG. 3a: Protocol. Bone cancer pain study with Compound A. Dose groups: Vehicle, Zoledronate (100 μg/kg ) positive control, Compound A (100 mg/kg, daily dosing, SC, days 7-21), 10 animals per group Control animals were injected with media (and no tumor cells) in the femur. FIGS. 3b-3d. Left to right: Sham/media +Compound A, Cancer +vehicle, cancer +zoledronate, cancer +Compound A. FIG. 3b: Effects on bone destruction. […] Spontaneous Pain in the form of Flinching was attenuated by Compound Aon day 14 and day 21 with statistical significance, as compared to vehicle. […] Movement evoked pain was attenuated by Compound A on day 13 with statistical significance as compared to vehicle.
FIG. 6. Histology Analysis of Bone Samples in Bone Caner Pain Study. Representative bone sections from the study described in FIG. 3A were subjected to staining with the standard hematoxylin and eosin histological stain to visualize cellular structures in the bone. In FIG. 6, the pitting of the bone is shown and indicated from samples in the study arm with 66.1 cancer cells in the bone and dosed with vehicle control only, which is due to ostelytic activity induced by the presence of the 66.1 cancer cells in the bone.
FIG. 3a sets forth the treatment protocol for the bone cancer pain study with Compound A. Dose groups: Vehicle, Zoledronate (100 μg/kg) positive control, Compound A (100 mg/kg, daily dosing, SC, days 7-21), 10 animals per group. Mice were implanted with breast cancer cells in the femur on day 0 and treated with Compound A on days 7 through 21. On days 0, 7, 14, and 21 radiographic imaging, thermal hyperalgesia, tactile allodynia, movement-evoked and spontaneous pain measurements were taken. Pain measurements were made 6 hours after dosing. Control animals were injected with media (and no tumor cells) in the femur. […] Bone destruction was attenuated by Compound A on day 14 and day 21 as compared to vehicle. The efficacy was similar to that obtained with zoledronate (see, FIG. 3b). […] Spontaneous Pain in the form of Flinching was attenuated by Compound A on day 14 and day 21 with statistical significance, as compared to vehicle (see, FIG. 3d). […] Movement evoked pain was attenuated by Compound A on day 13 with statistical significance as compared to vehicle (see, FIG. 3e).
Compound A was dosed subcutaneously, at a 100 mg/kg dose once a day, in a nanoparticle-sized formulation suitable for subcutaneous dosing and diluted in D5W (sterile 5% dextrose in water). Dosing was initiated 7 days after the femur implantation of the 66.1 tumor cells and continued once a day.
The data in FIG. 6 is based on representative bone sections from the study described in FIG. 3A, which were subjected to staining with the standard histological stain hematoxylin and eosin, in order to visualize cellular structures in the bone. Visualized samples include bone sections from study animals with 66.1 tumor cells injected into bone and dosed with either vehicle control or compound A and also animals with media alone injected into bone and also dosed with compound A. Normal hemapoetic cells of the bone and the 66.1 cancer cells within the bone, as well as bone histomorphology, were visualized by this staining procedure. […] This is due to ostelytic activity induced by the presence of the 66.1 cancer cells in the bone.

[6] = Pharmacokinetic profile in mice; format: in vivo
Method: (§1) FIG. 4. Pharmacokinetics of Compound A. FIG. 4a: Compound A pharmacokinetic profile in mice and rats. FIG. 4b. Single dose pharmacokinetics in the mouse following intravenous (1 mg/kg) and oral doses (5 mg/kg). Plasma concentration values vs. time.

[7] = Pharmacokinetic profile in rats; format: in vivo
Method: as §1

[8] = system: multiple human cathepsin enzymes; test: Cathepsin inhibitory profile on multiple cathepsin enzymes; format: biochemical
Excerpt: FIG. 1. […] Methods are similar to those set forth in the Biological Examples.

cathepsin B = cathepsin B (Homo sapiens, UniProt P07858); test: Activity-based probe (125-I labeled DMK) assay in HUVEC, cathepsin B; format: cell-based; parameters: endogenous in cells; host or cells: HUVEC
Method: (§2) FIG. 2. […] An activity-based probe assaying using 125-I labeled DMK reagent to assess the ability of Compound A to inhibit cathepsin L and cathepsin B protease activity in cells. In this assay human umbilical […] endothelial cells (HUVEC) are dosed with the indicated concentrations of Compound A in vitro. They are then incubated with the 125-I labeled activity probe for a short time, a cellular lysate produced, and the proteins analyzed biochemically by SDS PAGE. The gels are then imaged by autoradiography and the inhibition of protease activity, as assessed by the inhibition of activity probe binding, can be detected. FIG. 2b: Compound A inhibition of cathepsin S activity in the spleen in vivo as a function of time after dosing and plasma levels following a 10 mg/kg dose of the agent. […] The accumulation of the lip10 biomarker was tracked in spleen tissue samples taken from the treated animal. Accordingly, FIG. 2b. is based upon an assay which detects the accumulation of a proteolytic substrate of cathepsin S, the p10 fragment of invariant chain shown here as lip10, following dosing of Compound A in mice at 10 mg/kg/3 mice per time points are dosed with Compound A for the indicated times, and the spleens harvested and frozen. The level of lip10, an indicator cathepsin S inhibition is then detected using SDS PAGE and western blotting in lysates produced from the spleens. […]

cathepsin L = cathepsin L (Homo sapiens, UniProt P07711); test: Activity-based probe (125-I labeled DMK) assay in HUVEC, cathepsin L; format: cell-based; parameters: endogenous in cells; host or cells: HUVEC
Sequence of cathepsin L (P07711 114-333): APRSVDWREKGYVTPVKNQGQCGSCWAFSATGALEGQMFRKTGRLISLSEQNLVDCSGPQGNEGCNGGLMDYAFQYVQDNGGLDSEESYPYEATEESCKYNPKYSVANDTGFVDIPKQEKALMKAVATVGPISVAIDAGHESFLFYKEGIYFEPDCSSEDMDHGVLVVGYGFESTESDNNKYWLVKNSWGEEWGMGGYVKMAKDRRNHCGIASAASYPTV
Method: as §2

cathepsin S [9] = molecular target: T1, cathepsin S; test: Accumulation of lip10 biomarker in spleen after dosing; format: in vivo; parameters: from tissue; host or cells: mouse spleen (in vivo dosing); settings: mice, 10 mg/kg
Method: as §2

[10] = day 14 and day 21, 100 mg/kg, daily, SC, compared to vehicle

**Q.** What does the source list for `CC[C@H](NC(=O)[C@H](CS(=O)(=O)CC1CC1)N[C@@H](c1ccc(F)cc1)C(F)(F)F)C(=O)C(=O)NC1CC1` [Compound A, (S)—N-cyclopropyl-3-((R)-3-((cyclopropylmethyl)sulfonyl)-2-(((S)-2,2,2-trifluoro-1-(4-fluorophenyl)ethyl)amino)propanamido)-2-oxopentanamide]?
**A.** IC50 [1]: < 10 nM; IC50 (cathepsin S [2]): < 0.25 nM; IC50 (cathepsin S enzyme [3]): 0.77 nM; IC50 (cathepsin S enzyme [4]): 0.25 nM; tumor invasion (tumor invasion): inhibited; angiogenesis (angiogenesis): inhibited; bone pitting (histology, hematoxylin and eosin) ([5]; 100 mg/kg SC once a day, nanoparticle-sized formulation in D5W): reduced; effect after drug washout ([5]; after 7 days of drug washout): without any significant effect; movement evoked pain ([5]; day 13, 100 mg/kg, daily, SC, compared to vehicle): attenuated; bone destruction [5, 10]: attenuated; spontaneous pain in the form of Flinching [5, 10]: attenuated; spontaneous pain in the form of Guarding ([5]; day 14 and day 21, 100 mg/kg, daily, SC, compared to vehicle or zoledronate): attenuated; body weight ([5]; day 21, 100 mg/kg, daily, SC, days 7-21, compared to vehicle): retained weight as compared to vehicle; pharmacokinetics [6]: very favorable pharmacokinetics; pharmacokinetics [7]: very favorable pharmacokinetics; cathepsin inhibitory profile on multiple cathepsin enzymes [8]: very high potency and selectivity; inhibition of cathepsin B activity in endothelial cells, potency (cathepsin B): single digit nanomolar potency; inhibition of cathepsin L activity in endothelial cells, potency (cathepsin L): single digit nanomolar potency; activity in vivo as judged by accumulation of a biomarker (lip10) in the spleen (cathepsin S [9]): active in vivo
